biological target: T1, human cannabinoid CB1 receptor (Homo sapiens, UniProt P21554); test: CB1 receptor affinity, [3H]CP-55,940 radioligand binding to CHO cell membranes; conditions: not given
T1 construct: expressed in transfected cells; host or cells: Chinese hamster ovary (CHO) cells, stably transfected; membrane preparation
Description: CB1 receptor affinities can be determined using membrane preparations of Chinese hamster ovary (CHO) cells in which the human cannabinoid CB1 receptor is stably transfected (Biochem J. 1991, 279, 129-134) in conjunction with [3H]CP-55,940 as radioligand. After incubation of a freshly prepared cell membrane preparation with the [3H]-radioligand, with or without addition of test compound, separation of bound and free ligand is performed by filtration over glass fiber filters. Radioactivity on the filter is measured by liquid scintillation counting. The IC50 values can be determined from at least three independent measurements.
Tables A-E below describe selected examples of the present invention that have been synthesized and tested. The activities of these compounds are as follows: • +=an IC50 of ≦10 μM; • ++=IC50 of ≦1 μM; and, • +++=an IC50 ≦100 nM.

T1 sequence (P21554 whole entry): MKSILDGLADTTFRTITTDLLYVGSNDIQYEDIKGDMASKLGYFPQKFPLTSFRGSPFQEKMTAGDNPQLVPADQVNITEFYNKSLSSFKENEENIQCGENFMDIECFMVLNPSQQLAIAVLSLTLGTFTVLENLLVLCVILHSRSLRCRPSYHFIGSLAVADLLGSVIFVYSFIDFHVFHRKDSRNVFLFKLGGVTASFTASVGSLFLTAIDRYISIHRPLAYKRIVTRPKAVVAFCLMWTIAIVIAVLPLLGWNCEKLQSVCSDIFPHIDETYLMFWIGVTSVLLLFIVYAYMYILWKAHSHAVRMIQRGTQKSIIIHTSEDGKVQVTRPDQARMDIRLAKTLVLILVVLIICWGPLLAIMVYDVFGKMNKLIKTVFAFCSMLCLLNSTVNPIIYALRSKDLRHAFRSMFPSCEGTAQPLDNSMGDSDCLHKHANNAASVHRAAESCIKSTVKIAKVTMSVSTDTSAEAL

CCOC(=O)C(CC(C)C)NC(=O)c1nn(-c2ccc(Cl)cc2Cl)c(-c2ccc(Cl)cc2)c1C (stereo not shown) [Example A-8] and CCOC(=O)C(NC(=O)c1nn(-c2ccc(Cl)cc2Cl)c(-c2ccc(Cl)cc2)c1C)C(C)(C)C (stereo not shown) [Example A-11] cannot be ordered by IC50: under 100 nM for the first, under 100 nM for the second.

Compound Cc1c(C(=O)NC(C(N)=O)C(C)(C)C)nn(-c2ccc(Cl)cc2Cl)c1-c1ccc(Cl)cc1 (stereo not shown) [Example B-10] has an IC50 of under 100 nM.

same assay, conditions: Table A; read-out: CB1 Receptor Activity

CCOC(=O)CNC(=O)c1nn(-c2ccc(Cl)cc2Cl)c(-c2ccc(Cl)cc2)c1C [Example A-1] and CCOC(=O)CCNC(=O)c1nn(-c2ccc(Cl)cc2Cl)c(-c2ccc(Cl)cc2)c1C [Example A-3] cannot be ordered by IC50: under 10000 nM for the first, under 10000 nM for the second.

CCOC(=O)C(Cc1ccccc1)NC(=O)c1nn(-c2ccc(Cl)cc2Cl)c(-c2ccc(Cl)cc2)c1C (stereo not shown) [Example A-2] and Cc1c(C(=O)NC(Cc2ccccc2)C(=O)O)nn(-c2ccc(Cl)cc2Cl)c1-c1ccc(Cl)cc1 (stereo not shown) [Example A-4] cannot be ordered by IC50: under 1000 nM for the first, under 10000 nM for the second.

CCOC(=O)CCCNC(=O)c1nn(-c2ccc(Cl)cc2Cl)c(-c2ccc(Cl)cc2)c1C [Example A-5] and CCOC(=O)CC(C)NC(=O)c1nn(-c2ccc(Cl)cc2Cl)c(-c2ccc(Cl)cc2)c1C (stereo not shown) [Example A-6] cannot be ordered by IC50: under 10000 nM for the first, under 1000 nM for the second.

CCOC(=O)C(C)NC(=O)c1nn(-c2ccc(Cl)cc2Cl)c(-c2ccc(Cl)cc2)c1C (stereo not shown) [Example A-7] and CCOC(=O)C(NC(=O)c1nn(-c2ccc(Cl)cc2Cl)c(-c2ccc(Cl)cc2)c1C)C(C)CC (stereo not shown) [Example A-10] cannot be ordered by IC50: under 1000 nM for the first, under 100 nM for the second.

Cc1c(C(=O)NC(CC(C)C)C(=O)O)nn(-c2ccc(Cl)cc2Cl)c1-c1ccc(Cl)cc1 (stereo not shown) [Example A-9] and Cc1c(C(=O)NC(C(=O)O)C(C)(C)C)nn(-c2ccc(Cl)cc2Cl)c1-c1ccc(Cl)cc1 (stereo not shown) [Example A-12] cannot be ordered by IC50: under 1000 nM for the first, under 100 nM for the second.

same assay, conditions: Table B; read-out: CB1 Receptor Activity

Cc1c(C(=O)NCCC(N)=O)nn(-c2ccc(Cl)cc2Cl)c1-c1ccc(Cl)cc1 [Example B-1] and Cc1c(C(=O)NC(C)CC(N)=O)nn(-c2ccc(Cl)cc2Cl)c1-c1ccc(Cl)cc1 (stereo not shown) [Example B-2] cannot be ordered by IC50: under 10000 nM for the first, under 10000 nM for the second.

Cc1c(C(=O)NC(CC(C)C)C(N)=O)nn(-c2ccc(Cl)cc2Cl)c1-c1ccc(Cl)cc1 (stereo not shown) [Example B-3] and CCC(C)C(NC(=O)c1nn(-c2ccc(Cl)cc2Cl)c(-c2ccc(Cl)cc2)c1C)C(N)=O (stereo not shown) [Example B-4] cannot be ordered by IC50: under 1000 nM for the first, under 100 nM for the second.

Cc1c(C(=O)NC(Cc2ccccc2)C(N)=O)nn(-c2ccc(Cl)cc2Cl)c1-c1ccc(Cl)cc1 (stereo not shown) [Example B-5] and Cc1c(C(=O)NCc2cccc(C(N)=O)c2)nn(-c2ccc(Cl)cc2Cl)c1-c1ccc(Cl)cc1 [Example B-6] cannot be ordered by IC50: under 100 nM for the first, under 1000 nM for the second.

Cc1c(C(=O)NCc2ccc(C(N)=O)cc2)nn(-c2ccc(Cl)cc2Cl)c1-c1ccc(Cl)cc1 [Example B-7] and Cc1c(C(=O)NCc2ccc(C(=N)N)cc2)nn(-c2ccc(Cl)cc2Cl)c1-c1ccc(Cl)cc1 [Example B-9] cannot be ordered by IC50: under 1000 nM for the first, under 10000 nM for the second.

Work on Cc1c(C(=O)NCc2cccc(C(=N)N)c2)nn(-c2ccc(Cl)cc2Cl)c1-c1ccc(Cl)cc1 [Example B-8] yielded an IC50 of under 1000 nM.

same assay, conditions: Table C; read-out: CB1 Receptor Activity

CCOC(=O)C1CCCN(NC(=O)c2nn(-c3ccc(Cl)cc3Cl)c(-c3ccc(Cl)cc3)c2C)C1 (stereo not shown) [Example C-1] and Cc1c(C(=O)NN2CCCC(C(N)=O)C2)nn(-c2ccc(Cl)cc2Cl)c1-c1ccc(Cl)cc1 (stereo not shown) [Example C-3] cannot be ordered by IC50: under 1000 nM for the first, under 100 nM for the second.

For CCOC(=O)C1CCN(NC(=O)c2nn(-c3ccc(Cl)cc3Cl)c(-c3ccc(Cl)cc3)c2C)CC1 [Example C-2], the IC50 was under 1000 nM.

same assay, conditions: Table E; read-out: CB1 Receptor Activity

CCOC(=O)C1CCC(NC(=O)c2nn(-c3ccc(Cl)cc3Cl)c(-c3ccc(Cl)cc3)c2C)CC1 (stereo not shown) [Example E-1] and Cc1c(C(=O)NC2CCC(C(N)=O)CC2)nn(-c2ccc(Cl)cc2Cl)c1-c1ccc(Cl)cc1 (stereo not shown) [Example E-2] cannot be ordered by IC50: under 10000 nM for the first, under 10000 nM for the second.

test system: not given; test: not given; conditions: dose-related, most pronounced at the most efficacious weight-reducing dose; cited from earlier work

For Cc1c(C(=O)NN2CCCCC2)nn(-c2ccc(Cl)cc2Cl)c1-c1ccc(Cl)cc1 [rimonabant], the side effects is listed as “psychiatric and nervous system side effects”.

same assay, conditions: obese patients; cited from earlier work

For Cc1c(C(=O)NN2CCCCC2)nn(-c2ccc(Cl)cc2Cl)c1-c1ccc(Cl)cc1 [rimonabant], the weight loss is listed as “clinically meaningful weight loss”.

test system: not given; test: not given; conditions: usually not maintained; cited from earlier work

In the case of CCCCCCCCCCC[C@@H](C[C@@H]1OC(=O)[C@H]1CCCCCC)OC(=O)[C@H](CC(C)C)NC=O [orlistat], the “initial weight loss compared to placebo” value is given as “approximately 5%”.
In the case of CC(C)CC(N(C)C)C1(c2ccc(Cl)cc2)CCC1 (stereo not shown) [sibutramine], the “initial weight loss compared to placebo” value is listed as “approximately 5%”.

From patent US7687481B2, “Cannabinoid receptor antagonists/inverse agonists useful for treating obesity” (Jenrin Discovery, Inc., priority 2006, dated 2010)
